Experiments:
heart allograft [1] = experiment: Mouse heart allotransplantation (BALB/c to C3H); format: in vivo; details: doses of the order of 30 mg/kg/day, s.c. Alzet osmotic minipumps
Description: (§1) 8. Rat/Mouse Heart Allotransplantation
(§2) The in vivo efficacy of macrolides of the invention is assessed in rat and mouse heart allotransplantation using Alzet osmotic minipumps for s.c. administration.

FK binding protein = FK binding protein (Homo sapiens, UniProt P62942); experiment: FK binding protein binding (standard test); details: standard tests
Chain of FK binding protein (P62942 whole entry): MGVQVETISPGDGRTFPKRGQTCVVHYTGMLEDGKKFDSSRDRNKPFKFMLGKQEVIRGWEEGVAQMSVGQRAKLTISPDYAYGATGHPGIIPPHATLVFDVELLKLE

[2] = tested on: Tumour Necrosis Factor (TNF) α release by peripheral blood mononuclear cells; experiment: TNF release by human peripheral blood mononuclear cells; format: cell-based; details: PBMC, IFNγ 100 U/ml and LPS 5 μg/ml, 3 h incubation, ELISA
Description: 4. TNF Release by Human Peripheral Blood Mononuclear Cells
Mononuclear cells are prepared from the peripheral blood of healthy volunteers using Ficoll-Hypaque density separation according to the method of Hansell et al. (1991). Cells (10^5 cells/well in 200 μl RPMI 10% FCS by volume) are incubated with serial dilutions of the test compounds for 30 min at 37° C. prior to the addition of stimulus. Interferon γ (100 U/ml) and LPS (5 μg/ml) are used as stimuli to induce Tumour Necrosis Factor (TNF) α release by peripheral blood mononuclear cells. After 3 h incubation, the cells are centrifuged (1200 rpm for 10 min) and the supernatants are collected. The amount of TNF present in the cell supernatants is determined using a commercially available enzyme-linked immunosorbent assay kit.

heart allograft [3] = experiment: Rat heart allotransplantation (DA to Lewis); format: in vivo; details: in combination with suboptimal doses of cyclosporin A
Description: as §1, §2

DTH footpad swelling = experiment: DTH induced by SRBC-TH cells; format: in vivo, C57 BL/6 mice; details: doses of the order of 5 mg/kg s.c., footpad thickness after 24 hours
Description: 7. DTH Induced by SRBC-TH Cells
50 μl of the SRBC cell suspension (diluted 1:1 v/v with PBS) is injected s.c. into the left hind footpad (to measure non specific increase in footpad swelling due to the injection procedure). Right and left hind footpad thickness is measured 24 hours later.
The percent increase in thickness of the right footpad over the left footpad (z) is calculated. Thickness of right footpad=x. thickness of left footpad=y; % specific increase=z

[4] = Cytotoxic and cytostatic activity in vitro using the THP1 cell line (MTT); format: cell-based; details: human, thp1 cells; after 24 h incubation, IFNγ 100 U/ml and LPS 5 μg/ml; read-out: IC50, cytotoxicity THP1 (MTT)
Description: 3. Cytotoxic and Cytostatic Activity in Vitro Using the THP1 Cell Line
Cytotoxicity is determined using the human monocytic cell line THP1 (5×10^4 cells/well) which are incubated in the presence of IFNγ (100 U/ml)and LPS (5 μg/ml) plus test compound (up to 10 μM) for 24 to 72 h at 37° C. Living cells are quantified using the colourimetric read-out MTT which measures mitochondrial dehydrogenase enzymatic activity in living cells (Mossman 1983). Macrolides of the invention, e.g. compounds of formula IX and their pharmaceutically acceptable salts, e.g. Sanglifehrins A, B, C and D, have IC50 s of about 1000-5000 nM after 24 h incubation in this assay.

[5] = tested on: LPS-stimulated Murine B-cells; experiment: LPS-stimulated murine B-cell proliferation; format: cell-based, CBA mice; details: Mus musculus, 48 hours with 50 μg/ml LPS, labelled precursor incorporation into DNA, read-out: IC50, inhibition of B-cell proliferation
Description: LPS-stimulated Murine B-cells
Spleen cells (2×10^5) from CBA mice are incubated for 48 hours with 50 μg/ml LPS plus test compound. Proliferation is measured by labelled precursor incorporation into DNA.

[6] = tested on: spleen cells from Balb/c mice co-incubated with spleen cells from CBA mice; experiment: Two-way MLR (murine mixed lymphocyte reaction); format: cell-based; details: Mus musculus, 96 h, 4 days co-incubation, labelled precursor incorporation into DNA, read-out: IC50, proliferative response in two-way MLR
Description: 1. Proliferative Response Of Lymphocvtes to Allogenic Stimulation
Two-way MLR (Murine Mixed Lymphocyte Reaction)
Spleen cells (2×10^5) from Balb/c mice (female, 8-10 weeks) are co-incubated for 4 days with 2×10^5 spleen cells from CBA mice (female, 8-10 weeks). The allogenic cells induce a proliferative response in the responder spleen cell population which is measured by labelled precursor incorporation into the DNA.

[7] = molecular target: human recombinant cyclophilin A (Homo sapiens, UniProt P62937); experiment: Cyclophilin binding assay (competitive ELISA / competitive binding test); details: competition with coated BSA-cyclosporin A
Chain of human recombinant cyclophilin A (P62937 whole entry): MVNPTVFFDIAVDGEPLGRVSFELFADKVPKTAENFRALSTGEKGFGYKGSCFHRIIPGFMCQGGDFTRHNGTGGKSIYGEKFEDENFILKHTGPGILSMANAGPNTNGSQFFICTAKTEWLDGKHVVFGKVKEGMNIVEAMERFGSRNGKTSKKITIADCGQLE
Description: 5. Cyclophilin Binding Assay
A suitable cyclophilin binding assay is the competitive ELISA test described by Quesniaux in Eur. J. Immunol. 1987 17 1359-1365.

calcineurin = experiment: Calcineurin activity (standard test); format: biochemical; details: standard tests
[8] = tested on: Localised Graft-versus-Host (GvH) reaction; experiment: Localised graft-versus-host (GvH) reaction in the rat; format: in vivo; details: dose of about 1 mg/kg s.c., 4 consecutive days, lymph node weight on day 7
Description: 6. Localised Graft-versus-Host (GvH) Reaction in the Rat
Spleen cells (1×10^7) from 6 week old female Wistar/Furth (WF) rats are injected subcutaneously on day 0 into the left hind-paw of female (F344×WF)F1 rats weighing about 100 g. Animals are treated for 4 consecutive days and the popliteal lymph nodes are removed and weighed on day 7. The difference in weight between the two lymph nodes is taken as the parameter for evaluating the reaction.

Compound | graft survival (in words), mouse heart allotransplantation (heart allograft [1]) | FK binding protein binding activity (FK binding protein) | IC50 [2] | graft survival (in words), rat heart allotransplantation (heart allograft [3]) | reduction of swelling of the DTH mouse (DTH footpad swelling) | CC50 at 24 h [4] | IC50 [5] | IC50 [6] | IC50 [7] | inhibition of calcineurin activity (calcineurin) | inhibition of the GvH reaction [8]
CC[C@H]1C[C@H](C)[C@@]2(NC1=O)O[C@@H](C[C@H](O)[C@@H](C)CC/C=C/C=C(\C)[C@@H]1C/C=C/C=C/[C@H](O)[C@H](C)[C@@H](O)[C@@H](CCC(C)=O)C(=O)N[C@@H](C(C)C)C(=O)N[C@@H](Cc3cccc(O)c3)C(=O)N3CCC[C@H](N3)C(=O)O1)[C@H](C)[C@H](O)[C@@H]2C [Sanglifehrin A] | prolong graft survival | do not have FK binding protein binding activity | 200 to 1000 nM | prolonged graft survival | up to 50% | 1000 to 5000 nM | 40000 to 100000 nM | 30 to 200 nM |  |  | 
CCC1CC(C)C2(NC1=O)OC(CC(O)C(C)CCC=CC=C(C)C1CC=CC=CC(O)C(C)C(O)C(CCC(C)=O)C(=O)NC(C(C)C)C(=O)NC(Cc3cccc(O)c3)C(=O)N3CCCC(N3)C(=O)O1)C(C)C=C2C (stereo not drawn) [Sanglifehrin B] | prolong graft survival | do not have FK binding protein binding activity | 200 to 1000 nM | prolonged graft survival | up to 50% | 1000 to 5000 nM | 40000 to 100000 nM | 30 to 200 nM | 10 to 100 nM | do not inhibit calcineurin activity | up to 30%
CCC1CC(C)C2(NC1=O)OC(CC(O)C(C)CCC=CC=C(C)C1CC=CC=CC(O)C(C)C3OC(C)(OC)CCC3C(=O)NC(C(C)C)C(=O)NC(Cc3cccc(O)c3)C(=O)N3CCCC(N3)C(=O)O1)C(C)C(O)C2C (stereo not drawn) [Sanglifehrin C] | prolong graft survival | do not have FK binding protein binding activity | 200 to 1000 nM | prolonged graft survival | up to 50% | 1000 to 5000 nM | 40000 to 100000 nM | 30 to 200 nM | 10 to 100 nM | do not inhibit calcineurin activity | up to 30%

Reference: patent US6124453A, “Macrolides” (Novartis AG, priority 1995, dated 2000)
